Entries after “also recorded” stand apart in the source; their conditions may differ.

The record followed here is patent US20190359939A1, “NEW USE” (DIAMYD MEDICAL AB, priority 2015, published 2019).

Assay [1] concerns DCs from murine bone marrow (CD11c+ monocytes). Put plainly: Dendritic cell surface receptor expression (CD40, CD80, CD86, MHC Class II) by flow cytometry after cultivation with additives. The assay is classed as cell-based, NOD mouse. An excerpt: FIG. 1: Dendritic cell (CD11c+ monocytes) surface receptor expression after cultivation with various additives. Expression as indicated by the MFI of CD11+ monocyte cells stained with fluorescent antibodies towards CD40, CD80, CD86 and MHC Class II. A: comparing cells untreated (iDCs), matured with MPLA (mDCs), and cells treated with GABA, GABA and rhGAD65, and GABA and rhGAD65 matured with MPLA. B: comparing cells untreated (iDCs), matured with MPLA (mDCs), and cells treated with GABA, GABA and alhydrogel adsobed rhGAD65, and GABA and alhydrogel adsorbed rhGAD65 matured with MPLA. C: comparing cells untreated (iDCs), matured with MPLA (mDCs), and cells treated with GABA and rhGAD65 matured with MPLA, GABA and alhydrogel adsorbed rhGAD65 matured with MPLA, and cells treated with Dex and VD3 and matured with MPLA.
FIG. 1 (A, B and C) show the surface expression pattern of CD80, CD86, CD40 and MCH Class II proteins on murine DCs treated according to different protocols.
Mouse bone marrow-derived dendritic cells (BMDCs) were generated from bone marrow cells (femura) of 8-week-old NOD mouse females in complete RPMI 1640 medium (Lonza, Basel Switzerland) in the presence of GM-CSF (20 ng/ml) and IL-4 (4.5 ng/ml, PeproTech) for 6 days. Fresh medium was added on day 3 and comparator tDCs were induced by adding dexamethasone (1 μM) and vitamin D3 (0.5 ng/ml) on day 6, while mDCs were generated without tolerogenic factors, and iDCs were untreated for the entire cultivation period. Similarly for GABA testing, GABA was added on day 6 in at a concentration of 100 μM. Exposure to antigen was achieved by adding GAD65 (either pure GAD65 protein or alum adsorbed GAD65) to the cultivation mixture on day 6 along with tolerizing agents at a concentration of 5 μg/ml. […] Cells were harvested on day 8.
Mouse DCs were characterized by flowcytometry using following mAbs purchased from eBioscience; anti-CD11c-APC (clone N418), anti-CD40-PerCP-eFluor710 (clone 1C10), anti-CD80-FITC (clone 16-10A1), anti-CD86-PE (clone GL1), and anti-MHC II (I-A/I-E) (clone MS/114.15.2). Cells were stained with fluorochrome-conjugated antibodies against surface molecules and data were acquired by LSR II flow cytometers (BD Biosciences) and analyzed using FlowJo software (Tree Star).
A general note: In flow cytometry, cells or beads pass a laser one at a time.

For assay [2], the system named is CD11c+ DCs (IL-12 production). Put plainly: Intracellular IL-12 expression of treated dendritic cells by FACS. The assay is classed as cell-based, NOD mouse. The conditions noted are these: with alhydrogel adsorbed rhGAD65, activated with MPLA, FIG. 2B. The text has this: FIG. 2: IL-12 production of treated dendritic cells. A: FACS plots showing the intracellular IL-12 expression of CD11c+ monocytes as percent IL-12+ cells of parent population; from left to right, untreated (iDCs), matured by MPLA (mDCs), tolerogenic by Dex and VD3 and tolerogenic by GABA. B: Column diagram of percent of parent numbers of the same groups.
In FIG. 2A, FACS plots of the intracellular expression of IL-12 of untreated CD11c+ DCs (iDCs), proinflammatory matured DCs (mDCs), DCs treated with Dex, VD3 and alhydrogel adsorbed rhGAD65 activated by MPLA, and DCs treated with GABA and alhydrogel adsorbed rhGAD65 activated by MPLA are shown. IL-12 is a proinflammatory cytokine, and low production is indicative of tolerogenic DCs. The IL-12+ cells are shown in the upper left quadrant of the plots.
Tolerogenically treated cells on the other hand generally have very low expression of IL-12. Both cells treated with Dex and VD3 and those treated with GABA, even though they have been activated with MPLA, show very low numbers of IL-12+ cells.
Mouse bone marrow-derived dendritic cells (BMDCs) were generated from bone marrow cells (femura) of 8-week-old NOD mouse females in complete RPMI 1640 medium (Lonza, Basel Switzerland) in the presence of GM-CSF (20 ng/ml) and IL-4 (4.5 ng/ml, PeproTech) for 6 days. […]

Assay [3] concerns dendritic cells obtained from mouse bone marrow. The settings on record: compared to LPS or mouse serum albumin treatment.
Experimental: Dendritic cells obtained from mouse bone marrow are used. In order to secure a large amount of the number of the dendritic cells, Inaba's culture method (Inaba et al., J. Exp. Med. 175:1157, 1992), which is a representative method of culturing a dendritic cell, is modified and applied to the dendritic cells. […] A tibia and a femur of a mouse aged 6 to 11 weeks are extracted, and a RPMI1640 medium is added to bone marrow of the tibia and the femur to obtain bone marrow cells therefrom. Then, hypotonic ammonium chloride-potassium (ACK) lysing buffer is used for the lysis of red blood cells. The bone marrow cells are cultured in an RPMI1640 medium containing about 10 to 20 ng/ml recombinant mouse GMCSF, about 5 to 10 ng/ml recombinant mouse IL4, 5 to 10% heat inactivated fetal bovine serum, L-glutamine, 25 mM of HEPES, penicillin, and streptomycin under conditions of 5% CO2 and a temperature of 37° C., thereby inducing differentiation into dendritic cells. The medium is replaced every 2 days with a medium containing the recombinant cytokines. After 2 and 4 days of the culture, granulocytes and lymphocytes that are floating on the culture dish are removed. After 6 days of the culture, dendritic cells that are differentiated from precursor cells attached on the bottom of the culture dish and that have characteristic protrusions in suspension are used in the experiments. […]

For the compound `NCCCC(=O)O` [GABA, gamma-aminobutyric acid], the “surface protein expression profile (CD80, CD86, CD40, MHC Class II)” value was “more similar to iDCs and indicative of tDCs” in assay [1] (100 μM GABA alone, FIG. 1A); “remains the same; also recorded: remains indicative of tDCs” in assay [1] (GABA plus antigen GAD65 (rhGAD65), no MPLA); “increases slightly but is still much lower than mDCs; also recorded: still remains almost the same” in assay [1] (GABA plus rhGAD65, then MPLA). Further, the “tolerogenic expression pattern compared to Dexamethasone, Vitamin D and MPLA protocol” value in assay [1] (100 μM GABA and stabilization with MPLA, FIG. 1C) is on record as “comparable or better”. Besides, in assay [1] (GABA plus alhydrogel adsorbed rhGAD65, then MPLA, FIG. 1B), the surface molecule expression result is listed as “keep a low surface molecule expression”. The “CD80 expression compared to Dex and VD3 treated cells” value in assay [1] (activated by MPLA, FIG. 1C) is “even lower”. For the same compound, the “numbers of IL-12+ cells (percentage of CD11c+ monocytes that are IL-12 positive)” value in assay [2] is given as “very low”. In assay [3], the “amount of maturation markers on the surface of the dendritic cells (CD40, CD80, CD86, MHC class II)” value is given as “decreased”.
